Key:
[1] = test system: MDA-MB-231 breast cancer cells; assay: orthotopic tumorigenesis experiment with SX-pretreated breast cancer cells; assay type: in vivo, mice; conditions: cells treated with 10 μM SX for 7 d
Method: (§1) Experimental method and steps: Cancer cells were treated with salmeterol xinafoate (SX) in vitro for 3-7 d, and a subcutaneous or orthotopic tumorigenesis experiment was conducted on mice.
MDA-MB-231 breast cancer cells were treated with 10 μM salmeterol xinafoate (SX) for 7 d, and cells (1×10^4/mouse) were injected into the orthotopic mammary fat pads on both sides of the body of mice in a control group and an SX treated group (5 mice/group) to conduct a tumorigenesis experiment. 8 orthotopic cancers formed at 10 injection sites in the orthotopic mammary fat pads of 5 mice in the control group, and only 6 orthotopic cancers formed at 10 injection sites in the orthotopic mammary fat pads of 5 mice in the SX treated group.
Experimental results in FIG. 4 show cancer growth curves and representative cancer photos.

[2] = test system: CT-26 colorectal cancer cells; assay: subcutaneous tumorigenesis experiment with SX-pretreated colorectal cancer cells; assay type: in vivo, mice; conditions: cells treated with 10 μM SX for 7 d
Method: as §1
CT-26 colorectal cancer cells were treated with 10 μM salmeterol xinafoate (SX) for 7 d, and cells (1×10^5/mouse) were subcutaneously injected on both sides of the back of mice in a control group and an SX treated group (5 mice/group) to conduct a tumorigenesis experiment. 10 cancers formed subcutaneously at 10 injection sites of 5 mice in the control group, and 8 cancers formed subcutaneously at 10 injection sites of 5 mice in the SX treated group.
Experimental results in FIG. 5 show cancer growth curves and representative cancer photos.

LLC lung cancer cells = assay: subcutaneous tumorigenesis experiment with SX-pretreated lung cancer cells (LLC); assay type: in vivo, mice; conditions: cells treated with 10 μM SX for 7 d
Method: as §1
In FIG. 6B, LLC lung cancer cells were treated with 10 μM salmeterol xinafoate (SX) for 7 d, and cells (1×10^5/mouse) were subcutaneously injected on both sides of the back of mice in a control group (8 mice) and an SX treated group (5 mice) to conduct a tumorigenesis experiment.
Experimental results in FIG. 6 show cancer growth curves and representative cancer photos.

[3] = test system: CAL-27 head and neck cancer cells; assay: subcutaneous tumorigenesis experiment with SX-pretreated head and neck cancer cells; assay type: in vivo, mice; conditions: cells treated with 10 μM SX for 3 d, 1×10^6/mouse; FIG. 7; P<0.0001 vs control
Method: as §1
CAL-27 head and neck cancer cells were treated with 10 μM salmeterol xinafoate (SX) for 3 d, and cells (1×10^6/mouse) were subcutaneously injected on both sides of the back of mice in a control group and an SX treated group (3 mice/group) to conduct a tumorigenesis experiment.
Experimental results in FIG. 7 show cancer growth curves.

RT4 bladder cancer cells = assay: subcutaneous tumorigenesis experiment with SX-pretreated bladder cancer cells; assay type: in vivo, mice; conditions: cells treated with 10 μM SX for 3 d, 1×10^6/mouse; FIG. 9; P<0.0001 vs control
Method: as §1
RT4 bladder cancer cells were treated with 10 μM salmeterol xinafoate (SX) for 3 d, and cells (1×10^6/mouse) were subcutaneously injected on both sides of the back of mice in a control group and an SX treated group (5 mice/group) to conduct a tumorigenesis experiment.
Experimental results in FIG. 9 show cancer growth curves.

[4] = test system: breast cancer cells MDA-MB-231, 4T1, 168FARN, 67NR, 4TO7; assay: tumor sphere formation assay of breast cancer cells; assay type: cell-based; conditions: 1 μM, 3 μM, or 10 μM, 7 d; FIG. 11
Text: (§2) As a gold standard for detecting the self-renewal capability of cancer stem cells in vitro, a tumor sphere formation assay may detect individual cancer stem cell that continuously self-renew in a conditioned medium and form tumor spheres consisting of multiple cells. This in vitro experiment is often used to test the responsiveness of clinical patients to anticancer drugs, and guide in vivo medication of the clinical patients.
Experimental results in FIG. 11 show the number of tumor spheres from at least 3 independent experiments and representative tumor sphere photos.

[5] = test system: colorectal cancer cells CT-26, SW620, HCT-15, DLD-1; assay: tumor sphere formation assay of colorectal cancer cells; assay type: cell-based; conditions: 1 μM, 3 μM, or 10 μM, 7 d; FIG. 12
Text: as §2

[6] = test system: lung cancer cells LLC, H1299, H460, H446; assay: tumor sphere formation assay of lung cancer cells; assay type: cell-based; conditions: 1 μM, 3 μM, or 10 μM, 7 d; FIG. 13
Text: as §2

[7] = test system: head and neck cancer cells CAL-27; assay: tumor sphere formation assay of head and neck cancer cells; assay type: cell-based; conditions: 1 μM, 3 μM, or 10 μM, 7 d; FIG. 14
Text: as §2

bladder cancer cells RT4 = assay: tumor sphere formation assay of bladder cancer cells; assay type: cell-based; conditions: 1 μM, 3 μM, or 10 μM, 7 d; FIG. 16
Text: as §2

[8] = test system: melanoma cells B16F10, A375, A2058; assay: tumor sphere formation assay of melanoma cells; assay type: cell-based; conditions: 1 μM, 3 μM, or 10 μM, 7 d; FIG. 17
Text: as §2

hematoma cells SU-DHL-8 = assay: tumor sphere formation assay of hematoma cells; assay type: cell-based; conditions: 1 μM, 3 μM, or 10 μM, 7 d; FIG. 18
Text: as §2

[9] = test system: liver cancer cells Hep G2; assay: tumor sphere formation assay of liver cancer cells; assay type: cell-based; conditions: 1 μM, 3 μM, or 10 μM, 7 d; FIG. 20
Text: as §2

[10] = test system: kidney cancer cells G-401, 786-O; assay: tumor sphere formation assay of kidney cancer cells; assay type: cell-based; conditions: 1 μM, 3 μM, or 10 μM, 7 d; FIG. 22
Text: as §2

[11] = test system: gastric cancer cells SNU-1; assay: tumor sphere formation assay of gastric cancer cells; assay type: cell-based; conditions: 10 μM, 7 d; FIG. 23; P<0.001
Text: as §2
According to culture conditions in Table 13, gastric cancer cells SNU-1 were subjected to a tumor sphere formation assay, and treated with salmeterol xinafoate (SX) at a concentration of 10 μM.

brain cancer cells SF126 = assay: tumor sphere formation assay of brain cancer cells; assay type: cell-based; conditions: 1 μM, 3 μM, or 10 μM, 7 d; FIG. 25
Text: as §2

osteosarcoma cells U2OS = assay: tumor sphere formation assay of osteosarcoma cells; assay type: cell-based; conditions: 1 μM, 3 μM, or 10 μM, 7 d; FIG. 26; P<0.01
Text: as §2

a variety of cancers = assay: orthotopic or subcutaneous tumorigenesis experiments in mice, summary; conditions: summary of in vivo tumorigenesis experiments; drug concentration of 10 μM
Method: as §1

OCc1cc(C(O)CNCCCCCCOCCCCc2ccccc2)ccc1O (stereo not drawn) [salmeterol xinafoate]
orthotopic cancers formed at injection sites ([1]; 1×10^4/mouse into orthotopic mammary fat pads, 10 injection sites of 5 mice, control group 8): 6
cancer growth curves (initiation and progression) ([1]; FIG. 4, P<0.0001 vs control): inhibits the initiation and progression of orthotopic breast cancer
cancers formed subcutaneously at injection sites ([2]; 1×10^5/mouse, 10 injection sites of 5 mice, control group 10): 8
cancer growth curves (initiation and progression) ([2]; FIG. 5, P<0.0001 vs control): inhibits the initiation and progression of subcutaneous colorectal cancer
cancers formed subcutaneously at injection sites (LLC lung cancer cells; 1×10^5/mouse, 10 injection sites of 5 mice, control group all 16 sites): no cancers formed
cancer growth curves (initiation and progression) (LLC lung cancer cells; FIG. 6B, P<0.0001 vs control): inhibits the initiation and progression of subcutaneous lung cancer
cancer growth curves (initiation and progression) [3]: inhibits the initiation and progression of subcutaneous head and neck cancer
cancer growth curves (initiation and progression) (RT4 bladder cancer cells): inhibits the initiation and progression of subcutaneous bladder cancer
number of tumor spheres (self-renewal capability of cancer stem cells) [4]: inhibited the self-renewal capability of the breast cancer stem cells in a concentration dependent manner
number of tumor spheres (self-renewal capability of cancer stem cells) [5]: inhibited the self-renewal capability of the colorectal cancer stem cells in a concentration dependent manner
number of tumor spheres (self-renewal capability of cancer stem cells) [6]: inhibited the self-renewal capability of the lung cancer stem cells in a concentration dependent manner
number of tumor spheres (self-renewal capability of cancer stem cells) [7]: inhibited the self-renewal capability of the head and neck cancer stem cells
number of tumor spheres (self-renewal capability of cancer stem cells) (bladder cancer cells RT4): inhibited the self-renewal capability of the bladder cancer stem cells in a concentration dependent manner
number of tumor spheres (self-renewal capability of cancer stem cells) [8]: inhibited the self-renewal capability of the melanoma stem cells in a concentration dependent manner
number of tumor spheres (self-renewal capability of cancer stem cells) (hematoma cells SU-DHL-8): inhibited the self-renewal capability of the hematoma stem cells in a concentration dependent manner
number of tumor spheres (self-renewal capability of cancer stem cells) [9]: inhibited the self-renewal capability of the liver cancer stem cells in a concentration dependent manner
number of tumor spheres (self-renewal capability of cancer stem cells) [10]: inhibited the self-renewal capability of the kidney cancer stem cells in a concentration dependent manner
number of tumor spheres (self-renewal capability of cancer stem cells) [11]: inhibited the self-renewal capability of the gastric cancer stem cells
number of tumor spheres (self-renewal capability of cancer stem cells) (brain cancer cells SF126): inhibited the self-renewal capability of the brain cancer stem cells in a concentration dependent manner
number of tumor spheres (self-renewal capability of cancer stem cells) (osteosarcoma cells U2OS): inhibited the self-renewal capability of the osteosarcoma cancer stem cells
cancer initiation and cancer growth (a variety of cancers): not only inhibiting cancer initiation but also significantly inhibiting cancer growth
